Measured values: US20190328691A1, “ANTIBIOTIC THERAPY” (Boulos & Cooper Pharmaceuticals Pty Ltd, priority 2015, published 2019)
Where “and” joins values, the source holds several entries; their conditions need not be identical. Identical values can stand only once. Like-named read-outs stand apart in the source and are kept apart here.

Key:
[1] = system: Staphylococcus aureus (ATCC 29213); test: Checkerboard combination / MIC assay with S. aureus ATCC 29213; type: cell-based; conditions: S. aureus ATCC 29213; for MIC: Staphylococcus aureus, read-out: MIC of antibiotic alone
Description: (§1) Colonies were suspended in PBS. The absorbance of each suspension was measured with a spectrophotometer, and then the suspension was adjusted to 1×10^6 CFU/mL. The testing inoculum was prepared within 20 minutes before adding to wells of the test plate. Final cellular density in the checkerboard assays was 5×10^5 CFU/mL.
(§2) The combination effect of antibacterial substances administered together was evaluated by an in vitro checkerboard combination method with Staphylococcus aureus (ATCC 29213) and Staphylococcus aureus (BAA-1717). Ramizol and Chlopam were tested alone in 11 points by two-fold serial titration and in combination with different commercial antibiotics which were tested in a 7-point titration alone and in combination with Ramizol and Chlopam using the checkerboard technique as recommended by the Clinical & Laboratory Standards Institute (CLSI. Methods for Dilution In Antimicrobial Susceptibility Tests for Bacteria That Grow Aerobically; Approved Standard-Eighth Edition. CLSI document M07-A8 (ISBN 1-56238-689-1). Vol. 29 No. 2. Clinical and Laboratory Standards Institute, USA, 2009). The commercial antibiotics were also tested alone. Twenty-four checkerboard tests were performed.
(§3) The starting concentration of Ramizol, Chlopam, and the commercial antibiotics was four fold of the MIC. The testing range for each combination was described in the following summary tables.
(§4) Compound dilutions of Ramizol and Chlopam were performed in 100% DMSO and the final DMSO concentration in all test wells was 2%. Growth control wells also included 2% DMSO. CLSI protocol was followed for medium, inoculum preparation, and endpoint reading. The commercial antibiotics were dissolved and diluted in the CLSI specified diluent. The final inoculum count for each strain was 5×10^5 CFU/mL.
Cefepime, Daptomycin, Linezolid, Mupirocin, Oxacillin and Vancomycin were also tested alone. Each test substance was dissolved and diluted in 100% DMSO or specified solvent. Each test substance dilution (2 μL) was added to 96 μL broth CAMHB. CAMHB seeded with S. aureus ATCC 29213 at 1×10^6 CFU/mL (100 μL) was then added to the plate to generate a final cell count at 5×10^5 CFU/mL.
(§5) Assay plates were incubated and MIC endpoints were read as described in the MIC assay. FIC (Fraction Inhibitory Concentration) and FIC Index (FICI) values for each test condition and the average of FICI values of all pairwise combinations were calculated to determine if synergy or antagonism existed between the two substances. The FIC index was determined by calculating the sum of the ratios of MICs for both substances. Arithmetically, the FIC Index of a combination of Substance 1 and Substance 2 was defined as following: FICI=Σ[FIC(Substance 1)+FIC(Substance 2)]=[(MIC of Substance 1 in combination/MIC of Substance 1 alone)+(MIC of Substance 2 in combination/MIC of Substance 2 alone)]. Synergy is defined as the FICI (Σ)≤0.5; additivity as FICI (Σ)>0.5 to ≤1; indifference as FICI (Σ)>1 to ≤4; antagonism is defined as the FICI (Σ)>4 (Zinner and Blaser, J. Journal of Antimicrobial Chemotherapy (1986), 17, 1-5; Amin, et al BMC Complementary & Alternative Medicine (2015), 15, 59; Zuo, et al. Molecules (2011), 16, 9819-9826).

[2] = system: Staphylococcus aureus (BAA-1717); test: Checkerboard combination / MIC assay with S. aureus BAA-1717 (MRSA); type: cell-based
Description: as §1, §2, §3, §4
Each test substance was dissolved and diluted in 100% DMSO or specified solvent. Each test substance dilution (2 μL) was added to 96 μL broth CAMHB. CAMHB seeded with S. aureus BAA-1717 at 1×10^6 CFU/mL (100 μL) was then added to the plate to generate a final cell count at 5×10^5 CFU/mL.
as §5

CO/N=C(\C(=O)N[C@@H]1C(=O)N2C(C(=O)[O-])=C(C[N+]3(C)CCCC3)CS[C@H]12)c1csc(N)n1 [Cefepime]
FICI of combination with Chlopam ([1]; Chlopam 0.003906 μg/mL + labelled antibiotic at MIC of same cell): 1.0
MIC of antibiotic in combination with Chlopam ([1]; Chlopam 0.003906 μg/mL): 4 µg/mL
FICI of combination with Chlopam ([1]; Chlopam 0.0078125 μg/mL + labelled antibiotic at MIC of same cell): 1.0
MIC of antibiotic in combination with Chlopam ([1]; Chlopam 0.0078125 μg/mL): 4 µg/mL
FICI of combination with Chlopam ([1]; Chlopam 0.015625 μg/mL + labelled antibiotic at MIC of same cell): 1.0
MIC of antibiotic in combination with Chlopam ([1]; Chlopam 0.015625 μg/mL): 4 µg/mL
FICI of combination with Chlopam ([1]; Chlopam 0.25 μg/mL + labelled antibiotic at MIC of same cell): 1.0
MIC of antibiotic in combination with Chlopam ([1]; Chlopam 0.25 μg/mL): 2 µg/mL
FICI of combination with Chlopam ([1]; Chlopam 0.5 μg/mL + labelled antibiotic at MIC of same cell): 1.0
MIC of antibiotic in combination with Chlopam ([1]; Chlopam 0.5 μg/mL): 0.125 µg/mL
FICI of combination with Ramizol ([1]; Ramizol 0.015625 μg/mL + labelled antibiotic at MIC of same cell): 1.0
MIC of antibiotic in combination with Ramizol ([1]; Ramizol 0.015625 μg/mL): 4 µg/mL
FICI of combination with Ramizol ([1]; Ramizol 0.03125 μg/mL + labelled antibiotic at MIC of same cell): 1.0
MIC of antibiotic in combination with Ramizol ([1]; Ramizol 0.03125 μg/mL): 4 µg/mL
FICI of combination with Ramizol ([1]; Ramizol 0.0625 μg/mL + labelled antibiotic at MIC of same cell): 1.0
MIC of antibiotic in combination with Ramizol ([1]; Ramizol 0.0625 μg/mL): 4 µg/mL
FICI of combination with Ramizol ([1]; Ramizol 0.125 μg/mL + labelled antibiotic at MIC of same cell): 1.0
MIC of antibiotic in combination with Ramizol ([1]; Ramizol 0.125 μg/mL): 4 µg/mL
FICI of combination with Ramizol ([1]; Ramizol 1 μg/mL + labelled antibiotic at MIC of same cell): 0.8
MIC of antibiotic in combination with Ramizol ([1]; Ramizol 1 μg/mL): 2 µg/mL
FICI of combination with Ramizol ([1]; Ramizol 2 μg/mL + labelled antibiotic at MIC of same cell): 0.8
MIC of antibiotic in combination with Ramizol ([1]; Ramizol 2 μg/mL): 1 µg/mL
FICI of combination with Ramizol ([1]; Ramizol 4 μg/mL + labelled antibiotic at MIC of same cell): 1.0
MIC of antibiotic in combination with Ramizol ([1]; Ramizol 4 μg/mL): 0.125 µg/mL
MIC ([1]; ATCC29213, Table 4, checkerboard series with Chlopam): 4 µg/mL
MIC ([1]; ATCC29213, Table 7, checkerboard series with Ramizol): 4 µg/mL
mean FICI of combination with Chlopam ([1]; labelled antibiotic + Chlopam, mean of all pairwise combinations): 1.1
Effect of the combinations with Ramizol (by mean FICI) ([1]; labelled antibiotic + Ramizol): additive effect
mean FICI of combination with Ramizol ([1]; labelled antibiotic + Ramizol, mean of all pairwise combinations): 1.0
FICI of combination with Chlopam ([2]; Chlopam 0.001953 μg/mL + labelled antibiotic at MIC of same cell, S. aureus ATCC BAA-1717): 1.0
MIC of antibiotic in combination with Chlopam ([2]; Chlopam 0.001953 μg/mL, S. aureus ATCC BAA-1717): 256 µg/mL
FICI of combination with Chlopam ([2]; Chlopam 0.003906 μg/mL + labelled antibiotic at MIC of same cell, S. aureus ATCC BAA-1717): 1.0
MIC of antibiotic in combination with Chlopam ([2]; Chlopam 0.003906 μg/mL, S. aureus ATCC BAA-1717): 256 µg/mL
FICI of combination with Chlopam ([2]; Chlopam 0.0078125 μg/mL + labelled antibiotic at MIC of same cell, S. aureus ATCC BAA-1717): 1.0
MIC of antibiotic in combination with Chlopam ([2]; Chlopam 0.0078125 μg/mL, S. aureus ATCC BAA-1717): 256 µg/mL
FICI of combination with Chlopam ([2]; Chlopam 0.015625 μg/mL + labelled antibiotic at MIC of same cell, S. aureus ATCC BAA-1717): 1.0
MIC of antibiotic in combination with Chlopam ([2]; Chlopam 0.015625 μg/mL, S. aureus ATCC BAA-1717): 256 µg/mL
FICI of combination with Chlopam ([2]; Chlopam 0.03125 μg/mL + labelled antibiotic at MIC of same cell, S. aureus ATCC BAA-1717): 1.0
MIC of antibiotic in combination with Chlopam ([2]; Chlopam 0.03125 μg/mL, S. aureus ATCC BAA-1717): 256 µg/mL
FICI of combination with Chlopam ([2]; Chlopam 0.125 μg/mL + labelled antibiotic at MIC of same cell, S. aureus ATCC BAA-1717): 0.6
MIC of antibiotic in combination with Chlopam ([2]; Chlopam 0.125 μg/mL, S. aureus ATCC BAA-1717): 128 µg/mL
FICI of combination with Chlopam ([2]; Chlopam 0.5 μg/mL + labelled antibiotic at MIC of same line, S. aureus ATCC BAA-1717): 0.5
MIC of antibiotic in combination with Chlopam ([2]; Chlopam 0.5 μg/mL, S. aureus ATCC BAA-1717): 8 µg/mL
Effect of individual antibiotic combinations of lower concentrations ([2]; Chlopam and Cefepime: 0.25 and 64, 0.25 and 32, 0.25 and 16, 0.50 and 8 μg/mL, S. aureus ATCC BAA-1717): synergistic effect
FICI of combination with Ramizol ([2]; Ramizol 0.015625 μg/mL + labelled antibiotic at MIC of same cell, S. aureus ATCC BAA-1717): 1.0
MIC of antibiotic in combination with Ramizol ([2]; Ramizol 0.015625 μg/mL, S. aureus ATCC BAA-1717): 256 µg/mL
FICI of combination with Ramizol ([2]; Ramizol 0.03125 μg/mL + labelled antibiotic at MIC of same cell, S. aureus ATCC BAA-1717): 1.0
MIC of antibiotic in combination with Ramizol ([2]; Ramizol 0.03125 μg/mL, S. aureus ATCC BAA-1717): 256 µg/mL
FICI of combination with Ramizol ([2]; Ramizol 0.0625 μg/mL + labelled antibiotic at MIC of same cell, S. aureus ATCC BAA-1717): 1.0
MIC of antibiotic in combination with Ramizol ([2]; Ramizol 0.0625 μg/mL, S. aureus ATCC BAA-1717): 256 µg/mL
FICI of combination with Ramizol ([2]; Ramizol 0.125 μg/mL + labelled antibiotic at MIC of same line, S. aureus ATCC BAA-1717): 0.5
MIC of antibiotic in combination with Ramizol ([2]; Ramizol 0.125 μg/mL, S. aureus ATCC BAA-1717): 128 µg/mL
FICI of combination with Ramizol ([2]; Ramizol 0.25 μg/mL + labelled antibiotic at MIC of same cell, S. aureus ATCC BAA-1717): 0.6
MIC of antibiotic in combination with Ramizol ([2]; Ramizol 0.25 μg/mL, S. aureus ATCC BAA-1717): 128 µg/mL
FICI of combination with Ramizol ([2]; Ramizol 0.5 μg/mL + labelled antibiotic at MIC of same cell, S. aureus ATCC BAA-1717): 0.6
MIC of antibiotic in combination with Ramizol ([2]; Ramizol 0.5 μg/mL, S. aureus ATCC BAA-1717): 128 µg/mL
FICI of combination with Ramizol ([2]; Ramizol 1 μg/mL + labelled antibiotic at MIC of same line, S. aureus ATCC BAA-1717): 0.5
MIC of antibiotic in combination with Ramizol ([2]; Ramizol 1 μg/mL, S. aureus ATCC BAA-1717): 64 µg/mL
FICI of combination with Ramizol ([2]; Ramizol 2 μg/mL + labelled antibiotic at MIC of same line, S. aureus ATCC BAA-1717): 0.5 and 0.6
Effect of individual antibiotic combinations of lower concentrations ([2]; Ramizol and Cefepime: 0.125 and 128, 1 and 64, 2 and 8 μg/mL, S. aureus ATCC BAA-1717): synergistic effect
MIC ([2]; Staphylococcus aureus, ATCC BAA-1717 / BAA-1717, Table 4, checkerboard series with Chlopam, S. aureus ATCC BAA-1717, read-out: MIC of antibiotic alone): 256 µg/mL
MIC of antibiotic alone ([2]; Table 7, checkerboard series with Ramizol, S. aureus ATCC BAA-1717): 256 µg/mL
Effect of the combinations with Chlopam (by mean FICI) ([2]; labelled antibiotic + Chlopam, S. aureus BAA-1717): additive effect
mean FICI of combination with Chlopam ([2]; labelled antibiotic + Chlopam, mean of all pairwise combinations, S. aureus ATCC BAA-1717): 0.8
Effect of the combinations with Ramizol (by mean FICI) ([2]; labelled antibiotic + Ramizol, S. aureus BAA-1717): additive effect
mean FICI of combination with Ramizol ([2]; labelled antibiotic + Ramizol, mean of all pairwise combinations, S. aureus ATCC BAA-1717): 0.696
